Reference: US20240400555A1 (Initial Therapeutics, Inc., priority 2023, published 2024)
Where two headings read alike, the source gives them in different places.

Test system: MV-4-11 cells
Experiment: Cell Viability Assay in MV-4-11 Cells
Format: cell-based
Details: Homo sapiens, MV4-11, 72 h
Method in brief: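 Luminescent ATP read-out (CellTiter-Glo) after 72 h compound treatment of MV-4-11 leukaemia cells (7,000 per well, IMDM plus 10% FBS). Values expressed relative to DMSO control and derived by four-parameter non-linear regression.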

[1] = MV-4-11 cells, 72 h, Cell-Titer Glo, read-out: IC50

Row | Compound | IC50 [1] [nM] | IC50 [nM]
1 | Cc1cc(C2CCN(C(=O)N(c3nccc4scc(C)c34)[C@@H]3CCCNC3)CC2)on1 [Example 796, (R)-4-(3-methylisoxazol-5-yl)-N-(3-methylthieno[3,2-c]pyridin-4-yl)-N-(piperidin-3-yl)piperidine-1-carboxamide] | 510 | –
2 | Cc1csc2c(N(C(=O)c3ccc(-c4cn(C)nn4)cc3F)[C@@H]3CCCNC3)nccc12 [Example 677, (R)-2-fluoro-4-(1-methyl-1H-1,2,3-triazol-4-yl)-N-(3-methylthieno[2,3-c]pyridin-7-yl)-N-(piperidin-3-yl)benzamide] | 1400 | –
3 | Cc1cccc2ccnc(N(C(=O)c3ccc(Nc4nccc(C5=CCC(O)CC5)n4)cc3F)[C@@H]3CCCNC3)c12 (stereo partly drawn) [Example 681, 2-fluoro-4-((4-(4-hydroxycyclohex-1-en-1-yl)pyrimidin-2-yl)amino)-N-(8-methylisoquinolin-1-yl)-N—((R)-piperidin-3-yl)benzamide] | 32 | –
4 | O=C(O)/C=C/c1cc2c(N(C(=O)c3ccc(-n4nnc5cccnc54)cc3F)[C@@H]3CCCNC3)nccc2s1 [Example 500, (E)-3-[4-[[2-fluoro-4-(triazolo[4,5-b]pyridin-3-yl)benzoyl]-[(3R)-3-piperidyl]amino]thieno[3,2-c]pyridin-2-yl]prop-2-enoic acid] | > 10000 | –
5 | Cc1cccc2ccnc(N(C(=O)N3CCCC(CCC(=O)Nc4ccncc4)C3)[C@@H]3CCCNC3)c12 (stereo partly drawn) [Example 497, N-(8-methylisoquinolin-1-yl)-3-(3-oxo-3-(pyridin-4-ylamino)propyl)-N—((R)-piperidin-3-yl)piperidine-1-carboxamide] | 2000 | –
6 | Cc1cccc2ccnc(N(C(=O)c3ccc(Nc4nccc(N5CCC(c6ccncc6)CC5)n4)cc3F)[C@@H]3CCCNC3)c12 [Example 962, (R)-2-fluoro-N-(8-methylisoquinolin-1-yl)-N-(piperidin-3-yl)-4-((4-(4-(pyridin-4-yl)piperidin-1-yl)pyrimidin-2-yl)amino)benzamide] | 15 | –
7 | Cn1cc(-c2ccc(C(=O)N(c3nccc4sc(-c5ccnc(N)n5)cc34)[C@@H]3CCCNC3)c(F)c2)nn1 [Example 484, N-[2-(2-aminopyrimidin-4-yl)thieno[3,2-c]pyridin-4-yl]-2-fluoro-4-(1-methyltriazol-4-yl)-N-[(3R)-3-piperidyl]benzamide] | 930 | –
8 | Cc1ncc(-c2cc3c(N(C(=O)c4ccc(-n5nnc6cccnc65)cc4F)[C@@H]4CCCNC4)nccc3s2)s1 [Example 443, 2-fluoro-N-[2-(2-methylthiazol-5-yl)thieno[3,2-c]pyridin-4-yl]-N-[(3R)-3-piperidyl]-4-(triazolo[4,5-b]pyridin-3-yl)benzamide] | 300 | –
9 | Cc1cccc2ccnc(N(C(=O)c3ccc(Nc4nccc(CN5CCOCC5)n4)cc3F)[C@@H]3CCCNC3)c12 [Example 741, (R)-2-fluoro-N-(8-methylisoquinolin-1-yl)-4-((4-(morpholinomethyl)pyrimidin-2-yl)amino)-N-(piperidin-3-yl)benzamide] | 310 | –
10 | COCc1c(-c2ccc(C(=O)N(c3nccc4cc(Cl)cc(C)c34)[C@@H]3CCCNC3)c(F)c2)nnn1C [Example 637, (R)—N-(6-chloro-8-methylisoquinolin-1-yl)-2-fluoro-4-(5-(methoxymethyl)-1-methyl-1H-1,2,3-triazol-4-yl)-N-(piperidin-3-yl)benzamide] | 250 | –
11 | Cc1nnc(-c2ccc(C(=O)N(c3nccc4c(C)ccc(C)c34)[C@@H]3CCCNC3)cn2)s1 [Example 897, N-(5,8-dimethyl-1-isoquinolyl)-6-(5-methyl-1,3,4-thiadiazol-2-yl)-N-[(3R)-3-piperidyl] pyridine-3-carboxamide] | 140 | –
12 | CNC(=O)c1ccc2c(N(C(=O)c3ccc(-c4cn(C)nn4)cc3F)[C@@H]3CCCNC3)nccc2c1 [Example 688, (R)-1-(2-fluoro-4-(1-methyl-1H-1,2,3-triazol-4-yl)-N-(piperidin-3-yl)benzamido)-N-methylisoquinoline-6-carboxamide] | – | > 4500
13 | Cc1cc(Cl)cc2ccnc(N(C(=O)c3ccc(-c4cn(C)nn4)cc3)[C@@H]3CCCNC3)c12 [Example 802, (R)—N-(6-chloro-8-methylisoquinolin-1-yl)-4-(1-methyl-1H-1,2,3-triazol-4-yl)-N-(piperidin-3-yl)benzamide] | 38 | –
14 | Cc1cccc2ccnc(N(C(=O)c3ccc(-c4nnc(C5CC5)s4)cc3F)[C@@H]3CCCNC3)c12 [Example 836, (R)-4-(5-cyclopropyl-1,3,4-thiadiazol-2-yl)-2-fluoro-N-(8-methylisoquinolin-1-yl)-N-(piperidin-3-yl)benzamide] | 89 | –

Now from value to molecule, other results behind:

Row | IC50 [1] [nM] | Compound | IC50 [nM]
15 | 2600 | O=C(c1ccc(-n2nnc3cccnc32)cc1F)N(c1nccc2cnccc12)[C@@H]1CCCNC1 [Example 849, (R)-4-(3H-[1,2,3]triazolo[4,5-b]pyridin-3-yl)-2-fluoro-N-(2,6-naphthyridin-1-yl)-N-(piperidin-3-yl)benzamide] | –
16 | 440 | Cc1cc(-c2ccc(C(=O)N(c3nccc4cccc(C)c34)[C@@H]3CCCNC3)c(F)c2)[nH]n1 [Example 323, (R)-2-fluoro-4-(3-methyl-1H-pyrazol-5-yl)-N-(8-methylisoquinolin-1-yl)-N-(piperidin-3-yl) benzamide] | –
17 | 860 | Cn1cc(-c2ccc(C(=O)N(c3nccc4cc(F)ccc34)[C@@H]3CCCNC3)nc2)nn1 [Example 803, (R)—N-(6-fluoroisoquinolin-1-yl)-5-(1-methyl-1H-1,2,3-triazol-4-yl)-N-(piperidin-3-yl)picolinamide] | –
18 | 2300 | O=C(c1ccc(-n2nnc3cccnc32)cc1F)N(c1cc(/C=C/c2cccnc2)ccn1)[C@@H]1CCCNC1 [Example 431, 2-fluoro-N-[(3R)-3-piperidyl]-N-[4-[(E)-2-(3-pyridyl)vinyl]-2-pyridyl]-4-(triazolo[4,5-b]pyridin-3-yl)benzamide] | –
19 | 107 | Cc1cccc2ccnc(N(C(=O)c3ccc(Nc4ncnc(-c5ccccc5)n4)cc3F)[C@@H]3CCCNC3)c12 [Example 971, (R)-2-fluoro-N-(8-methylisoquinolin-1-yl)-4-(4-phenyl-1,3,5-triazin-2-ylamino)-N-(piperidin-3-yl)benzamide] | –
20 | 800 | CCOC(=O)/C=C/c1cc2c(N(C(=O)c3ccc(-n4nnc5cccnc54)cc3F)[C@@H]3CCCNC3)nccc2s1 [Example 501, ethyl (E)-3-[4-[[2-fluoro-4-(triazolo[4,5-b]pyridin-3-yl)benzoyl]-[(3R)-3-piperidyl]amino]thieno[3,2-c]pyridin-2-yl]prop-2-enoate] | –
21 | 53 | CCn1cc(-c2ccc(C(=O)N(c3nccc4cc(F)cc(C)c34)[C@@H]3CCCNC3)c(F)c2)nn1 [Example 712, 4-(1-ethyltriazol-4-yl)-2-fluoro-N-(6-fluoro-8-methyl-1-isoquinolyl)-N-[(3R)-3-piperidyl]benzamide] | –
22 | 390 | O=C(c1ccc(-n2nnc3cccnc32)cc1F)N(c1nccc2sc(C#Cc3ccncc3)cc12)[C@@H]1CCCNC1 [Example 411, 2-fluoro-N-[(3R)-3-piperidyl]-N-[2-[2-(4-pyridyl)ethynyl]thieno[3,2-c]pyridin-4-yl]-4-(triazolo[4,5-b]pyridin-3-yl)benzamide] | –
